Source: patent publication US20240090547A1, “SWEETENER COMPOSITIONS COMPRISING MOGROSIDES AND USES THEREOF” (Firmenich Incorporated, priority 2021, published 2024)

Experiments:
Format in all cases: in vivo, human
[1] = test system: panel of flavorists; assay: Additional sensory testing for lemon-flavored (lemon-lime) beverage, flavorist panel; conditions: 600 ppm mogrosides, 0 to 10 scale, letter in parentheses = Duncan's test group; for Sweet Linger: aftertaste, after expectoration; for Bitterness / Mouthfeel/Thickness / Peak Sweetness / Upfront Sweetness: in-mouth
Procedure: A panel of flavorists at three locations evaluated lemon-lime beverage various mogrosides at a concentration of 600 ppm mogrosides for in-mouth attributes (peak sweetness, upfront sweetness, bitterness, and mouthfeel/thickness) and aftertaste attributes (sweet taste linger), on a 0 to 10 scale. The in-mouth attributes were evaluated while holding the sample in the mouth, while the aftertaste attributes were evaluated after expectoration.

[2] = test system: expert panelists; assay: Expert panelists' comparison of mogrosides with stevia; conditions: 'Examples 4 and 5', in words
[3] = test system: panel of flavorists; assay: Additional sensory testing for vanilla milk, flavorist panel; conditions: 400 ppm mogrosides, 0 to 10 scale, letter in parentheses = Duncan's test group; for Sweet Linger: aftertaste, after expectoration; for Bitterness / Mouthfeel/Thickness / Peak Sweetness / Upfront Sweetness: in-mouth
Procedure: A panel of flavorists at three locations evaluated vanilla milk containing various mogrosides at a concentration of 400 ppm mogrosides for in-mouth attributes (peak sweetness, upfront sweetness, bitterness, and mouthfeel/thickness) and aftertaste attributes (sweet taste linger), on a 0 to 10 scale. The in-mouth attributes were evaluated while holding the sample in the mouth, while the aftertaste attributes were evaluated after expectoration. The data was analyzed using Duncan's new multiple range test and the scores are provided in the data below in parentheses.

Molecule | Sweet Linger [1] | Bitterness [1] | Mouthfeel/Thickness [1] | Peak Sweetness [1] | Upfront Sweetness [1] | bitter aftertaste compared with stevia [2] | licorice aftertaste compared with stevia [2] | mouthfeel compared with stevia [2] | Sweet Linger [3] | Bitterness [3] | Mouthfeel/Thickness [3] | Peak Sweetness [3] | Upfront Sweetness [3]
C[C@H](CC[C@@H](O[C@@H]1O[C@H](CO[C@@H]2O[C@H](CO)[C@@H](O)[C@H](O)[C@H]2O)[C@@H](O)[C@H](O)[C@H]1O[C@@H]1O[C@H](CO)[C@@H](O)[C@H](O)[C@H]1O)C(C)(C)O)[C@H]1CC[C@@]2(C)[C@@H]3CC=C4[C@@H](CC[C@H](O[C@@H]5O[C@H](CO)[C@@H](O[C@@H]6O[C@H](CO)[C@@H](O)[C@H](O)[C@H]6O)[C@H](O)[C@H]5O)C4(C)C)[C@]3(C)[C@H](O)C[C@]12C [Isomogroside V] | 4.857 (ab) | 2.286 (a) | 2.571 (b) | 5.571 (bc) | 4.000 (b) | lower bitter aftertaste | lower licorice aftertaste | better mouthfeel | 4.625 (b) | 0.875 (b) | 4.875 (ab) | 6.188 (b) | 5.125 (b)
C[C@H](CC[C@@H](O[C@@H]1O[C@H](CO[C@H]2O[C@H](CO)[C@@H](O)[C@H](O)[C@H]2O)[C@@H](O)[C@H](O)[C@H]1O[C@@H]1O[C@H](CO)[C@@H](O)[C@H](O)[C@H]1O)C(C)(C)O)[C@H]1CC[C@@]2(C)[C@]3(C)CC=C4[C@@H](CC[C@H](O[C@@H]5O[C@H](CO)[C@@H](O)[C@H](O)[C@H]5O)C4(C)C)[C@]3(C)[C@H](O)C[C@]12C [Siratose] | 6.143 (a) | 1.357 (a) | 4.143 (a) | 8.429 (a) | 6.571 (a) | lower bitter aftertaste | lower licorice aftertaste | better mouthfeel | 6.375 (a) | 1.750 (a) | 5.375 (a) | 8.000 (a) | 6.625 (a)
Isomogroside IVE | 3.429 (c) | 1.857 (a) | 2.714 (b) | 4.857 (c) | 3.571 (b) | lower bitter aftertaste | lower licorice aftertaste | better mouthfeel | 4.563 (b) | 1.313 (ab) | 4.125 (b) | 5.938 (c) | 5.125 (b)
